Assay results as given in paper PMC6314830 (Science Advances, 2019).

Test system: mouse skin
Assay: Topical application to uninfected mouse skin
Format: in vivo
Details: repeated daily topical treatments of the skin

CC[C@H](C)[C@H](N)C(=O)N[C@@H](CC(N)=O)C(=O)N[C@@H](CC(C)C)C(=O)N[C@@H](CCCCN)C(=O)N[C@@H](C)C(=O)N[C@@H](CC(C)C)C(=O)N[C@@H](C)C(=O)N[C@@H](C)C(=O)N[C@@H](CC(C)C)C(=O)N[C@@H](C)C(=O)N[C@@H](CCCCN)C(=O)N[C@@H](CCCCN)C(=O)N[C@H](C(=O)N[C@@H](CC(C)C)C(=O)O)[C@@H](C)CC [Mastoparan]
Local or systemic adverse effects: did not observe any local or systemic adverse effects
